Assay results published in patent US10072014B2 (Janssen Pharmaceutica NV, priority 2014, dated 2018).
Read-outs that look alike come from different tables or passages of the source.

Tests used:
human mGlu2 receptor = molecular target: T1, human mGlu2 receptor (Homo sapiens, UniProt Q14416); experiment: [35S]GTPγS binding assay, negative allosteric modulation of mGluR2; format: biochemical
T1 construct: expressed in transfected cells; host or cells: CHO cells
Source text: The compounds provided in the present invention are negative allosteric modulators of mGluR2. These compounds appear to inhibit glutamate responses by binding to an allosteric site other than the glutamate binding site. The response of mGluR2 to a concentration of glutamate is decreased when compounds of Formula (I) are present. Compounds of Formula (I) are expected to have their effect substantially at mGluR2 by virtue of their ability to reduce the function of the receptor. The effects of negative allosteric modulators tested at mGluR2 using the [^35S]GTPγS binding assay method described below and which is suitable for the identification of such compounds, and more particularly the compounds according to Formula (I), are shown in Table 7.
1) [^35S]GTPγS Binding Assay
The [^35S]GTPγS binding assay is a functional membrane-based assay used to study G-protein coupled receptor (GPCR) function whereby incorporation of a non-hydrolysable form of GTP, [^35S]GTPγS (guanosine 5′-triphosphate, labelled with […] ^35S), is measured. The G-protein a subunit catalyzes the exchange of guanosine 5′-diphosphate (GDP) by guanosine triphosphate (GTP) and on activation of the GPCR by an agonist, [^35S]GTPγS, becomes incorporated and cannot be cleaved to continue the exchange cycle (Harper (1998) Current Protocols in Pharmacology 2.6.1-10, John Wiley & Sons, Inc.). […] Here we describe the use of the [^35S]GTPγS binding assay using membranes from cells transfected with the human mGlu2 receptor and adapted from Schaffhauser et al. (Molecular Pharmacology, 2003, […]) for the detection of the negative allosteric modulation (NAM) properties of the compounds of this invention.
CHO-cells were cultured to pre-confluence and stimulated with 5 mM butyrate for 24 h. Cells were then collected by scraping in PBS and cell suspension was centrifuged (10 min at 4000 RPM in benchtop centrifuge). Supernatant was discarded and pellet gently resuspended in 50 mM Tris-HCl, pH 7.4 by mixing with an Ultra Turrax homogenizer. The suspension was centrifuged at 12,400 RPM (Sorvall F14S-6x250Y) for 10 minutes and the supernatant discarded. The pellet was homogenized in 5 mM Tris-HCl, pH 7.4 using an Ultra Turrax homogenizer and centrifuged again (13,000 RPM, 20 min, 4° C.). The final pellet was resuspended in 50 mM Tris-HCl, pH 7.4 and stored at −80° C. in appropriate aliquots before use. Protein concentration was determined by the Bradford method (Bio-Rad, USA) with bovine serum albumin as standard.
[^35S]GTPγS Binding Assay
Measurement of mGluR2 negative allosteric modulatory activity of test compounds was performed as follows. Test compounds and glutamate were diluted in assay buffer containing 10 mM HEPES acid, 10 mM HEPES salt, pH 7.4, 100 mM NaCl, 3 mM MgCl2 and 10 μM GDP. Human mGlu2 receptor-containing membranes were thawed on ice and diluted in assay buffer supplemented with 18 μg/ml saponin. Membranes were pre-incubated with compound together with a predefined (˜EC80) concentration of glutamate (60 μM) for 30 min at 30° C. After addition of [^35S]GTPγS (f.c. 0.1 nM), assay mixtures were shaken briefly and further incubated to allow [^35S]GTPγS incorporation on activation (30 minutes, 30° C.). Final assay mixtures contained 7 μg of membrane protein in 10 mM HEPES acid, 10 mM HEPES salt, pH 7.4, 100 mM NaCl, 3 mM MgCl2, 10 μM GDP and 10 μg/ml saponin. Total reaction volume was 200 μl. Reactions were terminated by rapid filtration through Unifilter-96 GF/B plates (Perkin Elmer, Massachusetts, USA) using a 96-well filtermate universal harvester. Filters were washed 6 times with ice-cold 10 mM NaH2PO4/10 mM Na2HPO4, pH 7.4. Filters were then air-dried, and 30 μl of liquid scintillation cocktail (Microscint-O) was added to each well. Membrane-bound radioactivity was counted in a Topcount.
The concentration-response curves of representative compounds of the present invention were generated using the Lexis software interface (developed at J&J). […]

rats = experiment: Reversal of the effect of the mGluR2 PAM JNJ-42153605-induced inhibition of scopolamine-induced hyperlocomotion; format: in vivo; conditions: Rattus norvegicus, PO
Description: 2) Reversal of the Effect of the mGluR2 PAM JNJ-42153605-induced Inhibition of Scopolamine-induced Hyperlocomotion Apparatus
Motor activity was measured in microprocessor-based motor activity arenas (closed gray PVC cylinders with a height of 39 cm and a diameter of 31 cm). Each arena was placed on an infrared LED (8×8 LEDs) lit box (white PVC squared box; 40×40 cm^2; height 12.5 cm. An infrared-sensitive tube camera and a white light source were mounted to the ceiling above the observation chamber to track the animal. The total distance traveled (cm) was recorded and analyzed using the Noldus Ethovision XT Video Tracking System (Version 7.0.418; Noldus, Wageningen, The Netherlands). The intensity of the light within the activity cages (measured in the centre at the level of the floor) ranged between 4 and 8 LUX.
The rats were pretreated with test compound or vehicle at 60 min before the start of the activity recordings and placed into individual cages. The rats were challenged with JNJ-42153605 (3-(cyclopropylmethyl)-7-(4-phenylpiperidin-1-yl)-8-(trifluoromethyl)-[1,2,4]triazolo[4,3-a]pyridine; WO2010/130424; Cid et al. J. Med. Chem. 2012, 55, 8770-8789) (20 mg/kg, i.v.) 30 min before the start of the activity recording combined with scopolamine (0.16 mg/kg, i.v.) just before the start of the activity measurements. Immediately after the injection of scopolamine, the rats were placed into the activity monitors and total distance traveled over the first 30 min was measured.
Solvent-pretreated Control Rats.
Animals receiving the combination of JNJ-42153605 and scopolamine (n=433) almost always traveled a distance of less than 1500 cm (<1500 cm) (only 2.5% of the control rats traveled a distance of more than 1500 cm (>1500 cm)). On the other hand, animals challenged with scopolamine alone (n=215) always traveled a total distance of more than 1500 cm (>1500 cm) and almost always (in 95.8% of the rats) a distance of more than 4400 cm (>4400 cm). […] For reversal of the inhibitory effect of JNJ-42153605 on the scopolamine-induced hyperlocomotion, the following all-or-none criteria were adopted: (1) reversal: total distance>1500 cm.

T1 sequence (Q14416 19-872): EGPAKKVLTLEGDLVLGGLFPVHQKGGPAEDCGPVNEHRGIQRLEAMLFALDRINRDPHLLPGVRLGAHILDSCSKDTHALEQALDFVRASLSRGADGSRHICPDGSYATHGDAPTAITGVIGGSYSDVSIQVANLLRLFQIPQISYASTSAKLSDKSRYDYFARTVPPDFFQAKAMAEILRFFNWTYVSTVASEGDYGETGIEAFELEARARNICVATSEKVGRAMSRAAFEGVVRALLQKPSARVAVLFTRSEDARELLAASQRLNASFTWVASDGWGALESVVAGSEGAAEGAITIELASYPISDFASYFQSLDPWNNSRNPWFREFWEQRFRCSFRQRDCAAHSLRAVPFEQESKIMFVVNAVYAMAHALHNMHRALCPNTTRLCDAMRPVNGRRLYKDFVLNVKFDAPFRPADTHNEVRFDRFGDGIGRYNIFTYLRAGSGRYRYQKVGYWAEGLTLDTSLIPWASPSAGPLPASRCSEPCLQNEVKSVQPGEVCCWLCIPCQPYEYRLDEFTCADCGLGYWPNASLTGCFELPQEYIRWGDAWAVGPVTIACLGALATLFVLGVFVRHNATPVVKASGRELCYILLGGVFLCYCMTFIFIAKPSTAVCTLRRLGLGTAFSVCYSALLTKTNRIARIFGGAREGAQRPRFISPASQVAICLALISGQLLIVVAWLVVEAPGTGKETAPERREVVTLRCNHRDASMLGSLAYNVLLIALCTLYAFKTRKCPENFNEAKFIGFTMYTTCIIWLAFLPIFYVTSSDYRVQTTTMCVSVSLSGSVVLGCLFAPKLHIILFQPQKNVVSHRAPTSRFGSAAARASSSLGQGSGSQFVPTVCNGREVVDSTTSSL

Emax (human mGlu2 receptor; maximal % inhibition relative to the control glutamate response (EC80 glutamate), read-out: GTPγS-hmGluR2 anGT Emax): 106% | IC50 (human mGlu2 receptor; membranes from CHO cells transfected with human mGlu2 receptor, glutamate 60 μM (~EC80), read-out: GTPγS-hmGluR2 anGT pIC50 (converted)): 3.47 nM
Compound: Cc1ncc(-c2cnn3c2C(=O)N(c2ccc(C(F)(F)F)c(Cl)c2)C[C@@H]3C)[nH]1 [Compound 27]
ED50 (rats; criterion for reversal: total distance >1500 cm, read-out: ED50 SCOP JNJ-42153605): > 2.5 mg/kg | ED50 (rats; more sensitive criterion for reversal: total distance >1300 cm, read-out: ED50 SCOP JNJ-42153605, more sensitive criterion): 1.25 mg/kg
